Measured values as given in article PMC9220355, “Inhibition of the Peroxygenase Lytic Polysaccharide Monooxygenase by Carboxylic Acids and Amino Acids” (Antioxidants, 2022).
Where two headings read alike, the source gives them in different places.

How the values were obtained:
NcLPMO9C [1] = target: T1, NcLPMO9C (Neurospora crassa, UniProt Q7SHI8); conditions: for Residual activity to 100 mM acetate buffer, Hydro-Coerulignone: pH 6; for peroxidase activity of LPMO at higher concentrations: >100 mM of the substance, 2,6-DMP and hydrocoerulignone assays
T1 sequence (Q7SHI8 17-359): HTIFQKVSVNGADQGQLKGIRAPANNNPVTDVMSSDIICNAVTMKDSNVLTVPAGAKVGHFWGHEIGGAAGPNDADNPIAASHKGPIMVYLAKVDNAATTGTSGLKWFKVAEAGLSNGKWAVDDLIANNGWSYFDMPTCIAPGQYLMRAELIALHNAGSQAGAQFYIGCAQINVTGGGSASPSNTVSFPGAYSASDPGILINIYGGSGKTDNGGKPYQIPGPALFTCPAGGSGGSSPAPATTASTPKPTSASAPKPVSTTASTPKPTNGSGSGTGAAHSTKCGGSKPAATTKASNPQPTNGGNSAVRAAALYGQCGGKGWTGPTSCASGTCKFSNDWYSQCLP
Experimental: (§2) LPMO-activity assay using 2000 µM 2,6-DMP or 500 µM hydrocoerulignone were carried out in 100 mM sodium acetate buffer at pH 6.0, at 30 °C using 100 µM H2O2, at 469 nm and a reaction time of 300 s. For blank reactions, the same experiments were performed without adding LPMO. The resulting rate was subtracted from the rate with the addition of LPMO. One unit of LPMO activity is defined as the conversion of either 2 µmol 2,6-DMP or 1 µmol hydrocoerulignone or the formation of 1 µmol coerulignone (ε469 = 53,200 M^−1 cm^−1) per min under reaction conditions. For the inhibition tests, the 100 mM sodium acetate buffer at pH 6.0 was supplemented with 100 mM of the different compounds and the pH was checked before and after the measurements.
(§3) By measuring the LPMO activity in 100 mM sodium acetate buffer, we determined the maximum activity achievable for the applied conditions.

NcLPMO9C [2] = target: T1, NcLPMO9C; conditions: for Rate (Light Intensity at 620 nm min^−1): 0.5 µM NcLPMO9C, 1 mM ascorbic acid, 100 µM H2O2, pH 6.0, acetic acid 200 mM, mean ± SD; for activity: pH 6
Experimental: LPMO activity was measured by the attenuation of optical density at 620 nm at 30 °C in 100 mM sodium acetate, 100 mM sodium citrate, or 100 mM sodium phosphate buffer, pH 6.0. […] The pH was checked before and after the measurements. A total volume of 2.5 mL contained 100 mM of buffer, pH 6.0, 0.8 mg/mL PASC, 0.5 or 1.0 µM of NcLPMO9C, 1 mM ascorbic acid or 1 µM NcCDHIIA with 10 mM lactose. A 10 mm quartz cuvette with a magnetic stirrer was used to maintain a homogeneously mixed PASC suspension.
To measure the inhibition by oxalic acid, the change in light intensity per minute was calculated at different inhibitor concentrations. […] LPMO was reduced with ascorbic acid and mixed with H2O2 to measure the activity.
LPMO peroxygenase activity was tested on PASC using a turbidity assay. Reaction was started with H2O2 and rates were obtained from light-intensity decrease at 620 nm. Assay contained 0.5 µM (A) or 1.0 µM (B) NcLPMO9C, 0.8 mg mL^−1 PASC, 1 mM ascorbic acid and 100 µM H2O2, respectively. H2O2 was added after 30 s to the stirred cuvette and the rate calculated from 40 s up to 200 s, having a data interval for each point of 0.1 s. pH was checked after all measurements and data are expressed as mean values (±SE), from three independent repeats. IC50 values were obtained by a nonlinear curve fit and calculating the oxalic acid concentration of oxalic acid at 50% of the rate.

NcLPMO9C [3] = target: T1, NcLPMO9C; conditions: - Ascorbic acid (blank); 4 h, 4 × 100 µM H2O2, 100 mM compound
Experimental: NcLPMO9C (1 µM) was incubated with 2 mg mL^−1 PASC, either 1 mM ascorbic acid or 1 µM NcCDHIIA together with 10 mM lactose as reductant and 400 µM H2O2 (4 × 100 µM) as cosubstrate at a total volume of 1 mL. At the beginning and after every hour, 100 µM H2O2 was added to the reaction. The reaction tubes were closed and continuously mixed in the dark for a total reaction time of 4 h. Reactions were stopped by heating to 95 °C for 10 min. The remaining PASC was removed by centrifugation, and the supernatant was analyzed by HPLC. Soluble cello-oligomers (DP 1–6) were used as standards to quantify LPMO-released products. To test the effect of different buffers or inhibitors, 100 mM sodium acetate buffer, pH 6.0, was supplemented with 100 mM of the different compounds.
We analyzed cello-oligomeric product formation after PASC treatment with NcLPMO9C, which is released as a byproduct of cellulose oxidation. […] Conditions with different buffers and reducing agents were tested. In all experiments, LPMO, PASC and H2O2 were present. As a reducing agent, ascorbic acid was chosen, whereas blank reactions were carried out in the absence of ascorbic acid.
H2O2 was added four times every hour.

NcCDHIIA = experiment: Amplex Red–horseradish peroxidase assay, background H2O2 production by CDH; format: biochemical, Neurospora crassa; conditions: for Specific activity, Background: without LPMO, 1 µM NcCDHIIA, 10 mM lactose, 50 µM AmplexRed, 7 U mL-1 horseradish peroxidase
Experimental: (§1) The Amplex Red–horseradish peroxidase assay was used to measure the uncoupling reaction of NcLPMO9C that produces superoxide or H2O2. The activity of LPMO was measured in the presence of oxalic acid as an inhibitory compound.

NcLPMO9C [4] = target: T1, NcLPMO9C; experiment: Amplex Red–horseradish peroxidase assay of the uncoupling reaction (H2O2 production) of LPMO; format: biochemical; design: made in house; host or cells: Pichia pastoris X-33; conditions: 1 µM NcLPMO9C, 1 µM NcCDHIIA, 10 mM lactose, 50 µM AmplexRed, 7 U mL-1 horseradish peroxidase; for Specific activity, NcLPMO9C - background: 100 mM sodium acetate buffer pH 6.0, without or with 100 mM oxalic acid; for Specific activity, NcLPMO9C: not background-corrected
Experimental: as §1

NcLPMO9C [5] = target: T1, NcLPMO9C; experiment: biochemical; conditions: for IC50: IC50 values as summarised in the text, for both assays (2,6-DMP and hydrocoerulignone), peroxidase reaction; for remaining activity at 100000 µM: pH 6, read-out: Residual activity to 100 mM acetate buffer, Hydro-Coerulignone
Experimental: as §2, §3

Compound: O=CC=O [Glyoxal]
- Residual activity to 100 mM acetate buffer, Hydro-Coerulignone (NcLPMO9C [1]): 43.9 ± 3.6%

Compound: [F-].[Na+] [NaF]
- effect on the activity of the LPMO (NcLPMO9C [1]; peroxidase assays): did not show any effect on the activity of the LPMO until very high concentrations were used

Compound: c1c[nH]cn1 [Imidazole]
- Residual activity to 100 mM acetate buffer, Hydro-Coerulignone (NcLPMO9C [1]): 72.2 ± 3.9%

Compound: CC(O)C(=O)O (centres unmarked) [Lactic acid]
- Rate (Light Intensity at 620 nm min^−1) (NcLPMO9C [2]): 0.08 ± 0.02 Light Intensity at 620 nm min^−1
- activity (NcLPMO9C [2]): 47 ± 13%
- Total cello-oligomers produced (NcLPMO9C [3]): 12.4 µM
- cellobiose produced (NcLPMO9C [3]): 3.5 µM
- cellotetraose produced (NcLPMO9C [3]): 5.4 µM
- cellotriose produced (NcLPMO9C [3]): 3.6 µM

Compound: CC(=O)O [Acetic acid]
- Specific activity, Background (NcCDHIIA): 2.6 ± 0.1 U g-1
- Rate (Light Intensity at 620 nm min^−1) (NcLPMO9C [2]): 0.14 ± 0.01 Light Intensity at 620 nm min^−1
- Specific activity, NcLPMO9C - background (NcLPMO9C [4]): 4.9 ± 0.1 U g-1
- Specific activity, NcLPMO9C (NcLPMO9C [4]): 7.5 ± 0.1 U g-1
- Total cello-oligomers produced (NcLPMO9C [3]): 14.6 µM
- cellobiose produced (NcLPMO9C [3]): 4.2 µM
- cellotetraose produced (NcLPMO9C [3]): 6.2 µM
- cellotriose produced (NcLPMO9C [3]): 4.3 µM

Compound: O=C(O)CC(O)(CC(=O)O)C(=O)O [Citric acid]
- Rate (Light Intensity at 620 nm min^−1) (NcLPMO9C [2]): 0.014 ± 0.001 Light Intensity at 620 nm min^−1
- activity (NcLPMO9C [2]): 8 ± 1%
- Total cello-oligomers produced (NcLPMO9C [3]): 17.3 µM
- cellobiose produced (NcLPMO9C [3]): 7.2 µM
- cellotetraose produced (NcLPMO9C [3]): 5.9 µM
- cellotriose produced (NcLPMO9C [3]): 4.2 µM
- peroxidase activity of LPMO at higher concentrations (NcLPMO9C [1]): nondetectable level

Compound: O=CC(=O)O [Glyoxylic acid]
- Residual activity to 100 mM acetate buffer, Hydro-Coerulignone (NcLPMO9C [1]): 1.1 ± 0.3%

Compound: O=C(O)C(=O)O [Oxalic acid]
- H2O2 production by NcCDHIIA (NcCDHIIA; 100 mM oxalic acid): not inhibited
- Specific activity, Background (NcCDHIIA): 3.4 ± 0.1 U g-1
- Rate (Light Intensity at 620 nm min^−1) (NcLPMO9C [2]): 0.002 ± 0.001 Light Intensity at 620 nm min^−1
- Specific activity, NcLPMO9C - background (NcLPMO9C [4]): 0.1 ± 0.1 U g-1
- Specific activity, NcLPMO9C (NcLPMO9C [4]): 3.5 ± 0.1 U g-1
- IC50 (NcLPMO9C [5]): ~1 mM
- remaining activity at 100000 µM (NcLPMO9C [5]): 0.6 ± 0.1%
- Total cello-oligomers produced (NcLPMO9C [3]): 15.8 µM
- cellobiose produced (NcLPMO9C [3]): 6.8 µM
- cellotetraose produced (NcLPMO9C [3]): 5.3 µM
- cellotriose produced (NcLPMO9C [3]): 3.7 µM
- peroxidase activity of LPMO at higher concentrations (NcLPMO9C [1]): nondetectable level

Compound: O=S(=O)([O-])[O-].[Na+].[Na+] [Na2SO4]
- IC50 (NcLPMO9C [1]; read-out: IC50 values as summarised in the text, for both assays (2,6-DMP and hydrocoerulignone), peroxidase reaction): ~30 mM

Compound: O=P(O)(O)O [Phosphoric acid]
- Rate (Light Intensity at 620 nm min^−1) (NcLPMO9C [2]): 0.107 ± 0.02 Light Intensity at 620 nm min^−1
- Total cello-oligomers produced (NcLPMO9C [3]): 14.8 µM
- cellobiose produced (NcLPMO9C [3]): 6.9 µM
- cellotetraose produced (NcLPMO9C [3]): 4.6 µM
- cellotriose produced (NcLPMO9C [3]): 3.3 µM

Compound: CC(=O)C(=O)O [Pyruvic acid]
- remaining activity at 100000 µM (NcLPMO9C [5]): 4.1 ± 0.4%
- Total cello-oligomers produced (NcLPMO9C [3]): 9.0 µM
- cellobiose produced (NcLPMO9C [3]): 5.6 µM
- cellotriose produced (NcLPMO9C [3]): 3.3 µM

Compound: N[C@@H](Cc1c[nH]cn1)C(=O)O [Histidine]
- IC50 (NcLPMO9C [5]): ~1 mM
- remaining activity at 100000 µM (NcLPMO9C [5]): 0.4 ± 0.2%
- peroxidase activity of LPMO at higher concentrations (NcLPMO9C [1]): nondetectable level
